US20240148821A1, “PHARMACEUTICAL USE OF CYCLIC PEPTIDE COMPOUND” (CHUGAI SEIYAKU KABUSHIKI KAISHA, priority 2021, published 2024)
Numbered stars: 1 amine (or outer) side, 2 acyl side, 3 side chain; on linkers, the order of the positions; unused ones are H or OH. Bridge positions count the residues as written; N and C are the ends. Square brackets hold non-standard residues; d marks the D form. Peptide text beside a SMILES is read from it. * marks the point of attachment. hPhe(3,5-F2-4-CF3) = N[C@@H](CCc1cc(F)c(C(F)(F)F)c(F)c1)C(=O)O; hPhe(3-Cl-4-CF3) = N[C@@H](CCc1ccc(C(F)(F)F)c(Cl)c1)C(=O)O; NMePhe(4-CF3) = CN[C@@H](Cc1ccc(C(F)(F)F)cc1)C(=O)O; X25 = COc1ccc(C[C@@H](C(=O)[*:2])N(C)[*:1])cn1; NMeAbu(4,4,4-F3) = CN[C@@H](CC(F)(F)F)C(=O)O; NMePhe(4-Me) = CN[C@@H](Cc1ccc(C)cc1)C(=O)O; NMeNle(6-CHF2) = CN[C@@H](CCCCC(F)F)C(=O)O; NMedβ3hAla = C[C@H](CC(=O)[*:2])N(C)[*:1]; NMeAla(cPent) = CN[C@@H](CC1CCCC1)C(=O)O; NMe3Pal = CN[C@@H](Cc1cccnc1)C(=O)O; NMeCha = CN[C@@H](CC1CCCCC1)C(=O)O; Hyp = O=C(O)[C@@H]1C[C@@H](O)CN1; NMeChg = CN[C@H](C(=O)O)C1CCCCC1; NMeI = CC[C@H](C)[C@H](NC)C(=O)O; NMeD = CN[C@@H](CC(=O)O)C(=O)O; NMeL = CN[C@@H](CC(C)C)C(=O)O; NMeNva = CCC[C@H](NC)C(=O)O; NMeV = CN[C@H](C(=O)O)C(C)C; Morpholide = C1CN(*)CCO1; NMeA = CN[C@@H](C)C(=O)O; NMeAib = CNC(C)(C)C(=O)O; Piperidide = C1CCN(*)CC1; Pyrrolidide = C1CCN(*)C1; Ac5c = NC1(C(=O)O)CCCC1; Aze = O=C(O)[C@@H]1CCN1; NBuGly = CCCCNCC(=O)O; Sar = CNCC(=O)O

Tests used:
[1] = target: protein-protein interaction between Kras and SOS1 (biotin-tagged human Kras loaded with GDP, His-tagged human SOS1) (Homo sapiens (Human), UniProt P01116, G12D); assay: Protein-protein interaction inhibition between Kras and SOS1 (KrasG12D-SOS PPI) using AlphaScreen; format: biochemical; details: AlphaScreen; biotin-tagged human Kras loaded with GDP, His-tagged human SOS1; read-out: KRAS G12D-SOS PPI IC50;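 note: kras produced in E. coli, Ni-coupled donor beads and streptavidin acceptor beads, excitation 680 nm with emission detected at 520–620 nm via singlet oxygen transfer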
[2] = tested on: Human pancreatic cancer cell line AsPC-1 (G12D mutation Kras); assay: AsPC-1 cell growth inhibition (AsPC-1 CGI); format: cell-based; details: read-out: AsPC-1 cell growth inhibition, 50% growth inhibitory concentration (IC50 value); 96 hours, CellTiter-Glo, values classified in ranges

Row | Compound | IC50 [1] [nM] | IC50 [2] [nM]
1 | CCO[C@@H]1C[C@H]2C(=O)NC3(CCCC3)C(=O)N(C)[C@@H](C3CCCCC3)C(=O)N(C)[C@H](C(=O)N3CCOCC3)CC(=O)N(C)[C@@H](CC(F)(F)F)C(=O)N[C@@H]([C@@H](C)CC)C(=O)N(C)CC(=O)N(C)CC(=O)N(C)[C@@H](Cc3ccc(C(F)(F)F)cc3)C(=O)N(C)CC(=O)N[C@@H](CCc3cc(F)c(C(F)(F)F)c(F)c3)C(=O)N2C1 [Compound 1297] ([NMeAbu(4,4,4-F3)]I[Sar][Sar][NMePhe(4-CF3)][Sar][hPhe(3,5-F2-4-CF3)][Hyp](Et)[Ac5c][NMeChg][NMeD]-Morpholide; lactam N-11) | 0.51 | ≤ 20
2 | CC[C@H](C)[C@@H]1NC(=O)[C@H](C)N(C)C(=O)C[C@@H](C)N(C)C(=O)[C@H](CC(C)C)NC(=O)C(C)(C)N(C)C(=O)[C@H](CC(C)C)NC(=O)[C@H](CCc2ccc(C(F)(F)F)c(Cl)c2)NC(=O)CN(C)C(=O)[C@H](Cc2ccc(C)cc2)N(C)C(=O)CN(C)C(=O)CN(C)C1=O [Compound 1398] (cyclo(I[Sar][Sar][NMePhe(4-Me)][Sar][hPhe(3-Cl-4-CF3)]L[NMeAib]L[NMedβ3hAla][NMeA])) | 6.6 | > 500
3 | CCC[C@H]1C(=O)N[C@@H]([C@@H](C)CC)C(=O)N(C)CC(=O)N(C)CC(=O)N(C)[C@@H](CC2CCCC2)C(=O)N(C)CC(=O)N[C@@H](CCc2ccc(C(F)(F)F)c(Cl)c2)C(=O)N(C)[C@@H](Cc2cccnc2)C(=O)NC2(CCCC2)C(=O)N(C)[C@@H](C2CCCCC2)C(=O)N(C)[C@H](C(=O)N2CCCC2)CC(=O)N1C [Compound 1946] ([NMeNva]I[Sar][Sar][NMeAla(cPent)][Sar][hPhe(3-Cl-4-CF3)][NMe3Pal][Ac5c][NMeChg][NMeD]-Pyrrolidide; lactam N-11) | 1.5 | > 500
4 | CC[C@H](C)[C@@H]1NC(=O)[C@H](CC(C)C)N(C)C(=O)C[C@@H](C(=O)N2CCCCC2)N(C)C(=O)[C@H](CCCCC(F)F)N(C)C(=O)C2(CCCC2)NC(=O)[C@@H]2CCCN2C(=O)[C@H](CCc2ccc(C(F)(F)F)c(Cl)c2)NC(=O)CN(C)C(=O)[C@H](CC2CCCCC2)N(C)C(=O)[C@@H]2CCN2C(=O)[C@H](C)N(C)C1=O [Compound 1123] ([NMeL]I[NMeA][Aze][NMeCha][Sar][hPhe(3-Cl-4-CF3)]P[Ac5c][NMeNle(6-CHF2)][NMeD]-Piperidide; lactam N-11) | 180 | > 500
5 | CCC[C@H]1C(=O)N[C@@H]([C@@H](C)CC)C(=O)N(C)CC(=O)N(C)CC(=O)N(C)[C@@H](CC2CCCCC2)C(=O)N(C)CC(=O)N[C@@H](CCc2ccc(C(F)(F)F)c(Cl)c2)C(=O)N2C[C@H](OCC)C[C@H]2C(=O)NC2(CCCC2)C(=O)N(C)[C@@H](C2CCCCC2)C(=O)N(C)[C@H](C(=O)N2CCCC2)CC(=O)N1C [Compound 1267] ([NMeNva]I[Sar][Sar][NMeCha][Sar][hPhe(3-Cl-4-CF3)][Hyp](Et)[Ac5c][NMeChg][NMeD]-Pyrrolidide; lactam N-11) | 0.36 | ≤ 20
6 | CC[C@H](C)[C@@H]1NC(=O)[C@H](CC(C)C)N(C)C(=O)C[C@@H](C(=O)N2CCCCC2)N(C)C(=O)[C@H](C2CCCCC2)N(C)C(=O)C2(CCCC2)NC(=O)[C@H](Cc2ccc(OC)nc2)N(C)C(=O)[C@H](CCc2ccc(C(F)(F)F)c(Cl)c2)NC(=O)CN(C)C(=O)[C@H](CC2CCCCC2)N(C)C(=O)CN(C)C(=O)CN(C)C1=O [Compound 592] ([NMeL]I[Sar][Sar][NMeCha][Sar][hPhe(3-Cl-4-CF3)][X25][Ac5c][NMeChg][NMeD]-Piperidide; lactam N-11) | 26 | > 500
7 | CCCCN1CC(=O)NC2(CCCC2)C(=O)N(C)[C@@H](C2CCCCC2)C(=O)N(C)[C@H](C(=O)N2CCCCC2)CC(=O)N(C)[C@@H](CC(C)C)C(=O)N[C@@H]([C@@H](C)CC)C(=O)N(C)CC(=O)N(C)CC(=O)N(C)[C@@H](CC2CCCCC2)C(=O)N(C)CC(=O)N[C@@H](CCc2ccc(C(F)(F)F)c(Cl)c2)C1=O [Compound 848] ([NMeL]I[Sar][Sar][NMeCha][Sar][hPhe(3-Cl-4-CF3)][NBuGly][Ac5c][NMeChg][NMeD]-Piperidide; lactam N-11) | 16 | > 500
8 | CC[C@H](C)[C@@H]1NC(=O)[C@H](CC(C)C)N(C)C(=O)C[C@@H](C(=O)N2CCOCC2)NC(=O)[C@H](C(C)C)N(C)C(=O)C2(CCCC2)NC(=O)[C@@H]2CCCN2C(=O)[C@H](CCc2ccc(C(F)(F)F)c(Cl)c2)NC(=O)CN(C)C(=O)[C@H](CC2CCCCC2)N(C)C(=O)[C@@H]2CCN2C(=O)[C@H](C)N(C)C1=O [Compound 1200] ([NMeL]I[NMeA][Aze][NMeCha][Sar][hPhe(3-Cl-4-CF3)]P[Ac5c][NMeV]D-Morpholide; lactam N-11) | 45 | > 500
9 | CC[C@H](C)[C@@H]1NC(=O)[C@H](CC(C)C)N(C)C(=O)C[C@@H](C(=O)N2CCOCC2)N(C)C(=O)[C@H]([C@@H](C)CC)N(C)C(=O)C2(CCCC2)NC(=O)[C@@H]2CCCN2C(=O)[C@H](CCc2ccc(C(F)(F)F)c(Cl)c2)NC(=O)CN(C)C(=O)[C@H](CC2CCCCC2)N(C)C(=O)[C@@H]2CCN2C(=O)[C@H](C)N(C)C1=O [Compound 40] ([NMeL]I[NMeA][Aze][NMeCha][Sar][hPhe(3-Cl-4-CF3)]P[Ac5c][NMeI][NMeD]-Morpholide; lactam N-11) | 0.96 | ≤ 20
